# Values joined by “and” are separate entries in the source; they are usually repeats but may differ in a detail not shown here. Identical values can stand only once. Like-named read-outs stand apart in the source and are kept apart here. Marks after values point to notes of the source that are not given here.
# Legend:
# [1] = Plasma time-activity curve AUC of radiotracers; conditions: c.421CC
# From the text: (§1) A whole brain gray matter region of interest was defined on individual magnetic resonance images acquired in all study participants (T1‐weighted Achieva 3.0T scanner; Philips Medical Systems, Best, The Netherlands) using the Hammersmith n30r83 3D maximum probability atlas of the human brain.43 In addition, the pituitary gland was manually delineated.
# [2] = test system: ABCB1 and ABCG2 at the human BBB; assay: PET brain distribution of radiotracers, baseline scan and scan during ABCB1 inhibition with tariquidar infusion; conditions: for K 1 / k 2 / k 3 / k 4: 2T4K model; for K 1 / k 2 / k 3 / k 4 / V T (2T4K) / V T (Logan): whole brain; for whole brain V T (Logan) lower than V T (Logan) in the pituitary gland: c.421CC subjects
# From the text: as §1
# [3] = Plasma protein binding by ultrafiltration; conditions: similar in baseline and ABCB1 inhibition scans, high nonspecific filter binding
# [4] = Radiolabeled metabolites / unchanged radiotracer in plasma during PET (solid-phase extraction); conditions: 60 minutes after injection, c.421CC subjects
# in vitro = conditions: human, plasma
# [5] = test system: ABCB1 and ABCG2 at the human BBB; conditions: in vivo
# From the text: as §1
# [6] = Tariquidar plasma concentrations during second PET scan (LC-MS/MS)
# [7] = Safety monitoring: adverse events during study participation; format: in vivo, human; conditions: relationship with tariquidar administration could not be excluded
# Procedure: During the PET study, heart rate and blood pressure were repeatedly measured and recorded. In addition, clinical laboratory blood and urine tests were performed. Adverse events were recorded.
# [8] = parameters: method as in earlier work; conditions: (R)-[^11C]verapamil group, no ABCG2 genotype available, data from previous study, cited from earlier work
# human ABCB1 [9] = target: T1, human ABCB1 (Homo sapiens, UniProt P08183)
# human ABCB1 [10] = target: T1, human ABCB1; assay: cell-based
# human ABCG2 = target: T2, human ABCG2 (Homo sapiens, UniProt Q9UNQ0); assay: In vitro uptake assay in MDCK-ABCG2 cells: tariquidar inhibition of ABCG2-mediated transport; format: cell-based; conditions: for IC50: IC50 of tariquidar for inhibition of ABCG2 transport, 120 min uptake
# T2 construct: P. Borst and Dr. A. Schinkel (Netherlands Cancer Institute); host or cells: MDCK-II (MDCK-ABCG2)
# T2 sequence (Q9UNQ0 1-655): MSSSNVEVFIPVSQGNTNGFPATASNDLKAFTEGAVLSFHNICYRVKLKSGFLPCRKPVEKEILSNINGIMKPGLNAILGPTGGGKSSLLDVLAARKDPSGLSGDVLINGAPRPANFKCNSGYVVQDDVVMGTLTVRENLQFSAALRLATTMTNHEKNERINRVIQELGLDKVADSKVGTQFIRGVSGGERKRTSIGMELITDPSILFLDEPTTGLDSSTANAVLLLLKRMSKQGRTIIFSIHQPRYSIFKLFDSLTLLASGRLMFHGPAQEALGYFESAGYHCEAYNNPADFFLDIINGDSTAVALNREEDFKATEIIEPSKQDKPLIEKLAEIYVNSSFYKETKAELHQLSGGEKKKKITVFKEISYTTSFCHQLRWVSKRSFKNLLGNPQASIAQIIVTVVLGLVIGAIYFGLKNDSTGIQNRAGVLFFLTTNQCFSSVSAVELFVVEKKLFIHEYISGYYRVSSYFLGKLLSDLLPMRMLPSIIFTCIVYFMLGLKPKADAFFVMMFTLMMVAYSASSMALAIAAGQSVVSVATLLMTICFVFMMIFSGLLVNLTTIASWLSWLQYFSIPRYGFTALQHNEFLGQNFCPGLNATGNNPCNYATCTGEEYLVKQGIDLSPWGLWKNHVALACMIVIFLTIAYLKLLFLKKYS
# Procedure: LLC‐PK1 cells transduced with human ABCB1 (LLC‐ABCB1) and MDCK‐II cells transduced with human ABCG2 (MDCK‐ABCG2) were kindly provided by Prof. P. Borst and Dr. A. Schinkel (Netherlands Cancer Institute, Amsterdam, Netherlands). Culturing of the cells and testing of vincristine sulfate resistance (0.64 μmol/L) for LLC‐ABCB1 cells and mitoxantrone resistance (20 μmol/L) for MDCK‐ABCG2 cells was performed as described previously.46
# Cells were seeded with a density of 0.3 × 10^6 cells/cm^2 on 96‐well plates (white Isoplates for liquid scintillation counting, Perkin Elmer, Rodgau, Germany). Then 5–7 days after the cells reached 100% confluence, the experiment was initiated with 1‐hour preincubation at 37°C, 5% carbon dioxide, and 95% humidity, for which culture medium was replaced by serum‐free Opti‐MEM (Gibco/Life Technologies, Darmstadt, Germany). […] After 120 minutes (37°C, 5% carbon dioxide, 95% humidity), cells were transferred on ice, washed twice with ice‐cold phosphate‐buffered saline before lysis buffer (25 mmol/L Tris, pH 8, 50 mmol/L sodium chloride, 0.5% (w/v) deoxycholic acid, 0.5% (w/v) Triton X‐100) supplemented with complete protease inhibitor (Roche, Mannheim, Germany) was added and protein concentrations in the respective wells were determined by using the Pierce BCA Protein Assay kit (ThermoScientific, Pittsburgh, PA).
# With Prism 6.0 software (GraphPad Software, La Jolla, CA), a sigmoidal model with variable slope was used to analyze concentration–response relationships by nonlinear regression.
# ABCB1 at the human BBB = test system: ABCB1 at the human BBB; parameters: method as in PMID 25669913; conditions: tariquidar plasma concentration; previously estimated; read-out: in vivo IC50 for inhibition of ABCB1 transport of (R)-[^11C]verapamil at the human BBB; cited from earlier work
# T1 sequence (P08183 whole entry): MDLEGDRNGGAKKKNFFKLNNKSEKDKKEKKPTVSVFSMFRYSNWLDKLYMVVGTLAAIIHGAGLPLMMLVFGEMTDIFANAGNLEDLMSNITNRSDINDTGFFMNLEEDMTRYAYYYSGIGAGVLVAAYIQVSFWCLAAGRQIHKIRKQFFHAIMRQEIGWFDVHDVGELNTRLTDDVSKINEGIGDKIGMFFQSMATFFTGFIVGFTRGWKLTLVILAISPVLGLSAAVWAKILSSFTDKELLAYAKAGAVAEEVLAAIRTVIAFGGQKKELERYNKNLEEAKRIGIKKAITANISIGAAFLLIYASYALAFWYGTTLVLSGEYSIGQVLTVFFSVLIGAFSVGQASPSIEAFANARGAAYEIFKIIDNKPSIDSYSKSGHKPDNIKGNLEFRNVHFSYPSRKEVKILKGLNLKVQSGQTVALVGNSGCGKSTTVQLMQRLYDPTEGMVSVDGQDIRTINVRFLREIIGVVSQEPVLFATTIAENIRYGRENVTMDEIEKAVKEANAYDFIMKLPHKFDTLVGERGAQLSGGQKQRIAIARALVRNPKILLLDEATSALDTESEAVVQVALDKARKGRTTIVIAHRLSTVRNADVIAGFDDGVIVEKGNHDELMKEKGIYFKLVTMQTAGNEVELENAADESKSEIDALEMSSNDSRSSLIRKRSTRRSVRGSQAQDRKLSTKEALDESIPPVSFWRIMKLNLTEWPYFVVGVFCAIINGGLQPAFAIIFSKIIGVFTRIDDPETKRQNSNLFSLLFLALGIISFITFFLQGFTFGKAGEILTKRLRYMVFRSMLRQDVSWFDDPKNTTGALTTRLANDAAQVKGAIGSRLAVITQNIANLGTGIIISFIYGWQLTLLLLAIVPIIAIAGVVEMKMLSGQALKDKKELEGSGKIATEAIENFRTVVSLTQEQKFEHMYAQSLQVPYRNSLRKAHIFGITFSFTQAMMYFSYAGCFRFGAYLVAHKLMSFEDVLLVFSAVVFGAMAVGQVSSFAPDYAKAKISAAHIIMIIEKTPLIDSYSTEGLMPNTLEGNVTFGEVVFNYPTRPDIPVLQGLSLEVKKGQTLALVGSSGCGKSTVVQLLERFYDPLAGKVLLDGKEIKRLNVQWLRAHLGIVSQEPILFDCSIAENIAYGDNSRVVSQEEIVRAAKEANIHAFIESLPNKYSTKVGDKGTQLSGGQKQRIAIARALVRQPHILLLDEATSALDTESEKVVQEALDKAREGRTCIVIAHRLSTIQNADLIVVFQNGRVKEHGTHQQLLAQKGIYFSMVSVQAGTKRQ
compound,measurement,setting,value
COc1cc2c(cc1OC)CN(CCc1ccc(NC(=O)c3cccc4c(=O)c5cccc(OC)c5[nH]c34)cc1)CC2 [[^11C]elacridar],AUC ABCB1 inhibition (plasma time-activity curve),[1]; 0 to 60 min,46.9 ± 8.0 SUV x min
same,AUC baseline (plasma time-activity curve),[1]; 0 to 60 min,37.2 ± 6.2 SUV x min
same,% change over baseline (plasma AUC),[1],27 ± 12%
same,K 1,[2]; c.421CC ABCB1 inhibition,0.013 ± 0.005 (8) mL/(g x min)
same,k 2,[2]; c.421CC ABCB1 inhibition,0.302 ± 0.250 (31) 1/min
same,k 3,[2]; c.421CC ABCB1 inhibition,0.198 ± 0.050 (21) 1/min
same,k 4,[2]; c.421CC ABCB1 inhibition,0.016 ± 0.003 (13) 1/min
same,K 1,[2]; c.421CC baseline,0.006 ± 0.002 (9) mL/(g x min)
same,k 2,[2]; c.421CC baseline,0.135 ± 0.050 (33) 1/min
same,k 3,[2]; c.421CC baseline,0.148 ± 0.040 (22) 1/min
same,k 4,[2]; c.421CC baseline,0.015 ± 0.004 (17) 1/min
same,whole brain V T (Logan) lower than V T (Logan) in the pituitary gland,[2]; scan 1 (baseline),13.2 ± 4.6 fold
same,whole brain V T (Logan) lower than V T (Logan) in the pituitary gland,[2]; scan 2 (ABCB1 inhibition),7.9 ± 2.1 fold
same,baseline whole brain V T (Logan) lower in humans than in rats,[2]; comparison with a previous preclinical study,~2 fold
same,V T (Logan) in the pituitary gland during tariquidar infusion as compared with baseline scans,[2]; pituitary gland,not significantly different
same,increase in V T (Logan) in scan 2,[2]; single c.421CA subject with the highest increase (scanned with both radiotracers),2.3 fold
same,V T (2T4K),[2]; c.421CC ABCB1 inhibition,0.676 ± 0.111 (6)
same,V T (Logan),[2]; c.421CC ABCB1 inhibition,0.658 ± 0.098 (9)
same,V T (2T4K),[2]; c.421CC baseline,0.492 ± 0.051 (9)
same,V T (Logan),[2]; c.421CC baseline,0.478 ± 0.027 (6)
same,Plasma protein binding,[3],> 99%
same,percentage of unchanged radiotracer in plasma,[4]; baseline scans,94.6 ± 2.3%
same,percentage of unchanged radiotracer in plasma,[4]; second PET scan (tariquidar infusion),94.7 ± 1.1%
COc1cc2c(cc1OC)CN(CCc1ccc(NC(=O)c3cc(OC)c(OC)cc3NC(=O)c3cnc4ccccc4c3)cc1)CC2 [[^11C]tariquidar],fraction unbound,in vitro,< 0.01
same,baseline whole brain V T (Logan) lower in humans than in rats,[5]; human compared with rat,~2 fold
same,V T (Logan),[5]; human,0.40
same,increase in V T (Logan) in scan 2,[5]; human,3.1 fold
COc1cc2c(cc1OC)CN(CCc1ccc(NC(=O)c3cc(OC)c(OC)cc3NC(=O)c3cnc4ccccc4c3)cc1)CC2 [tariquidar],Tariquidar plasma concentration during the PET scan (average of three determinations),"[6]; [^11C]elacridar group, c.421CC, i.v. infusion, total dose 5.7 ± 0.8 mg/kg",2.6 ± 0.5 µmol/L
same,Tariquidar plasma concentration at the time of PET,"[6]; [^11C]tariquidar group, c.421CA, i.v. infusion",3.2 ± 0.4 µmol/L
same,Tariquidar concentration in plasma of individual subjects,"[6]; end of PET, [^11C]elacridar c.421CA",2.22 µmol/L
same,Tariquidar concentration in plasma of individual subjects,"[6]; end of PET, [^11C]elacridar c.421CC",2.45 µmol/L and 1.98 µmol/L and 2.58 µmol/L and 2.72 µmol/L and 4.03 µmol/L
same,Tariquidar concentration in plasma of individual subjects,"[6]; end of PET, [^11C]tariquidar c.421CA",3.67 µmol/L and 3.18 µmol/L and 2.24 µmol/L and 3.08 µmol/L and 3.79 µmol/L
same,Tariquidar concentration in plasma of individual subjects,"[6]; end of PET, [^11C]tariquidar c.421CC",2.71 µmol/L and 2.78 µmol/L and 3.13 µmol/L and 3.70 µmol/L
same,Tariquidar concentration in plasma of individual subjects,"[6]; middle of PET, [^11C]elacridar c.421CA",2.23 µmol/L
same,Tariquidar concentration in plasma of individual subjects,"[6]; middle of PET, [^11C]elacridar c.421CC",2.33 µmol/L and 2.55 µmol/L and 2.71 µmol/L and 2.43 µmol/L and 3.73 µmol/L
same,Tariquidar concentration in plasma of individual subjects,"[6]; middle of PET, [^11C]tariquidar c.421CA",3.93 µmol/L and 3.55 µmol/L and 3.31 µmol/L and 2.86 µmol/L and 3.57 µmol/L
same,Tariquidar concentration in plasma of individual subjects,"[6]; middle of PET, [^11C]tariquidar c.421CC",2.68 µmol/L and 2.09 µmol/L and 2.95 µmol/L and 2.70 µmol/L and 2.65 µmol/L
same,Tariquidar concentration in plasma of individual subjects,"[6]; start of PET, [^11C]elacridar c.421CA",1.94 ^a µmol/L
same,Tariquidar concentration in plasma of individual subjects,"[6]; start of PET, [^11C]elacridar c.421CC",2.67 µmol/L and 1.83 µmol/L and 1.71 µmol/L and 2.74 µmol/L and 2.73 µmol/L
same,Tariquidar concentration in plasma of individual subjects,"[6]; start of PET, [^11C]tariquidar c.421CA",3.70 µmol/L and 2.61 µmol/L and 2.87 ^a µmol/L and 2.47 µmol/L and 2.80 µmol/L
same,Tariquidar concentration in plasma of individual subjects,"[6]; start of PET, [^11C]tariquidar c.421CC",2.91 µmol/L and 2.17 µmol/L and 2.65 µmol/L and 2.67 µmol/L and 2.64 µmol/L
same,Adverse event: abdominal cramps and vomiting,[7],one
same,Adverse event: collapse,[7],four
same,Adverse event: dizziness,[7],two
same,Adverse event: dysgeusia,[7],10 subjects
same,Adverse event: headache,[7],three
same,Adverse event: phlebitis,[7],three
same,Tariquidar concentration in plasma of individual subjects,[8]; end of PET,3.76 µmol/L and 2.52 µmol/L and 4.11 µmol/L and 2.83 µmol/L and 3.38 µmol/L
same,Tariquidar concentration in plasma of individual subjects,[8]; middle of PET,3.61 µmol/L and 2.71 µmol/L and 3.88 µmol/L and 2.85 µmol/L and 2.56 µmol/L
same,Tariquidar concentration in plasma of individual subjects,[8]; start of PET,2.81 µmol/L and 1.70 µmol/L and 2.36 µmol/L and 1.91 µmol/L and 2.11 µmol/L
same,IC50,human ABCB1 [9],17.1 nM
same,IC50,human ABCB1 [10],29.5 nM
same,IC50,human ABCG2; [^3H]elacridar (1 nmol/L) as substrate,813 nM
same,IC50,human ABCG2; [^3H]tariquidar (1 nmol/L) as substrate,310 nM
same,Hill slope,human ABCG2; [^3H]elacridar as substrate,1.1
same,Hill slope,human ABCG2; [^3H]tariquidar as substrate,1.1
same,IC50,ABCB1 at the human BBB,2300 ± 1000 nM
